Assay results as given in patent publication US12697343B2, “Intravenous istaroxime for the treatment of acute heart failure” (Seismic Pharmaceuticals Operations LLC, priority 2021, dated 2026).
Counter-ions that a name gives are not always drawn. Like-named read-outs stand apart in the source and are kept apart here.

How the values were obtained:
[1] = test system: patients hospitalized for acute heart failure (AHF); conditions: intention-to-treat analysis, Carubelli et al., cited from earlier work
[2] = test system: patients hospitalized for acute heart failure (AHF); assay: Vital signs (systolic blood pressure, heart rate) during and after 24 h infusion; type: in vivo, human
Source text: This study was a phase II, multicenter, randomized, double-blind, placebo-controlled, parallel group investigation, conducted at two sites in Italy and eight sites in China. All patients provided written informed consent. The study was approved by country regulatory authorities and by local institutional review boards. The trial is registered in the European Clinical Trials Database (EudraCT 2013-000540-26) and ClinicalTrials.gov (NCT02617446).
Patients were randomized 2:1 to istaroxime or placebo 24 h infusion and were enrolled in two sequential cohorts, the first with an istaroxime dose of 0.5 μg/kg/min and the second with an istaroxime dose of 1.0 μg/kg/min. At the end of cohort 1 enrollment, an independent Data Safety and Monitoring Board conducted an interim safety analysis of unblinded data before proceeding to cohort 2 enrollment. Inclusion criteria were: age ≥18 years, an ongoing hospitalization for AHF with dyspnoea at rest or minimal exertion and need for intravenous diuretic therapy (40 mg intravenous furosemide), SBP between 90 and 125 mmHg without signs or symptoms of peripheral hypoperfusion: LVEF ≤40%: intermediate to high E/e′ ratio by tissue Doppler echocardiography (10); brain natriuretic peptide (BNP) or N-terminal pro BNP (NT-proBNP) plasma levels ≥350 pg/mL or ≥1400 pg/mL, respectively, and presence of adequate echocardiographic windows. The main exclusion criteria were: concomitant or planned treatment with intravenous vasodilators, inotropes or vasopressors: treatment with oral digoxin (patients treated with digoxin within the last week could be randomized if the plasma concentration at screening was 0.5 ng/mL); acute coronary syndrome or stroke within the past 3 months: coronary artery bypass graft or percutaneous coronary intervention within the past month or planned in the next month: resting HR >120 bpm or <50 bpm: life-threatening ventricular arrhythmia or implantable cardioverter-defibrillator shock within the past month: fever 38° C.; serum creatinine 3.0 mg/dL or estimated glomerular filtration rate (eGFR) 30 mL/min/m2; serum potassium 5.3 mmol/L or 3.8 mmol/L; severe hepatic dysfunction.
(§1) The primary efficacy endpoint was the change from baseline to 24 h after the start of the infusion in the E/e ratio assessed by tissue Doppler echocardiography. Secondary endpoints included the change from baseline to 24 h of other echocardiography parameters: LVEF, left ventricular end-systolic and end-diastolic volumes, stroke volume index, E, A, E/A ratio, and S′: changes in dyspnoea by visual analogue scale (VAS) and in NT-proBNP from baseline to 24 h: proportion of patients with hospital readmissions or emergency visits for cardiovascular reasons by day 30; proportion of patients with episodes of in-hospital worsening heart failure to day 4, and length of stay. In-hospital worsening heart failure was defined by the need to increase the dose or reinitiate intravenous therapy with diuretics and/or other inotropic agents to day 4. Safety endpoints were assessed throughout the study and included: incidence of adverse events (AEs): change in vital signs and in 12-lead electrocardiographic (ECG) parameters: incidence of clinically or haemodynamically significant episodes of supraventricular or ventricular arrhythmias detected by continuous ECG monitoring: standard laboratory parameters: renal function: cardiac troponin T (cTnT): incidence of cTnT elevations, and mortality at day 30. Elevations in cTnT were considered significant if they were >50% or >20% from baseline values, for patients with cTnT below or above the 99% upper reference limit at baseline, respectively.
The study design included a 24 h screening period, a 24 h study drug infusion phase (day 1), a post-treatment phase (days 2-4), and a follow-up visit at day 30 (FIG. 5). Patients could be enrolled at any time after admission. The use of oral medications was permitted during the study with the exception of digoxin. […]

[3] = test system: patients hospitalized for acute heart failure (AHF); parameters: species or system human; conditions: in vivo
Protocol: as §1, with “In-hospital worsening heart failure was defined by the need to increase the dose or reinitiate intravenous therapy with diuretics and/or other inotropic agents to day 4.” left out, “Elevations in cTnT were considered significant if they were >50% or >20% from baseline values, for patients with cTnT below or above the 99% upper reference limit at baseline, respectively.” left out
The study design included a 24 h screening period, a 24 h study drug infusion phase (day 1), a post-treatment phase (days 2-4), and a follow-up visit at day 30 (FIG. 5). […] AEs were monitored throughout the duration of the study.

C[C@]12CCC(=NOCCN)C[C@@H]1C(=O)C[C@@H]1[C@@H]2CC[C@]2(C)C(=O)CC[C@@H]12 [Istaroxime, (E,Z)-3-((2-aminoethoxy)imino)androstane-6,17-dione hydrochloride]
mean change in E/e′ ratio at 24 h ([1]; 0.5 μg/kg/min): −4.55 (4.75)
mean change in E/e′ ratio at 24 h ([1]; 1.0 μg/kg/min): −3.16 (2.59)
HR mean change from baseline ([2]; 0.5 μg/Kg/min, 3 hours): −4.21 bpm
SBP mean change from baseline ([2]; 0.5 μg/Kg/min, 3 hours): 1.49 mmHg
HR mean change from baseline ([2]; 0.5 μg/Kg/min, 6 hours): −3.51 bpm
SBP mean change from baseline ([2]; 0.5 μg/Kg/min, 6 hours): 2.92 mmHg
HR mean change from baseline ([2]; 0.5 μg/Kg/min, 12 hours): −4.59 bpm
SBP mean change from baseline ([2]; 0.5 μg/Kg/min, 12 hours): 3.13 mmHg
HR mean change from baseline ([2]; 0.5 μg/Kg/min, 24 hours): −3.26 bpm
SBP mean change from baseline ([2]; 0.5 μg/Kg/min, 24 hours): 2.82 mmHg
HR mean change from baseline ([2]; 0.5 μg/Kg/min, 48 hours): −0.37 bpm
SBP mean change from baseline ([2]; 0.5 μg/Kg/min, 48 hours): −3.10 mmHg
HR decreased from baseline by ([2]; 0.5 μg/kg/min): about 3 bpm
SBP increased from baseline by ([2]; 0.5 μg/kg/min): about 3 mmHg
HR mean change from baseline ([2]; 1.0 μg/Kg/min, 3 hours): −10.61 bpm
SBP mean change from baseline ([2]; 1.0 μg/Kg/min, 3 hours): 7.63 mmHg
HR mean change from baseline ([2]; 1.0 μg/Kg/min, 6 hours): −8.89 bpm
SBP mean change from baseline ([2]; 1.0 μg/Kg/min, 6 hours): 8.08 mmHg
HR mean change from baseline ([2]; 1.0 μg/Kg/min, 12 hours): −9.49 bpm
SBP mean change from baseline ([2]; 1.0 μg/Kg/min, 12 hours): 9.00 mmHg
HR mean change from baseline ([2]; 1.0 μg/Kg/min, 24 hours): −9.61 bpm
SBP mean change from baseline ([2]; 1.0 μg/Kg/min, 24 hours): 6.11 mmHg
HR mean change from baseline ([2]; 1.0 μg/Kg/min, 48 hours): 3.86 bpm
SBP mean change from baseline ([2]; 1.0 μg/Kg/min, 48 hours): −1.73 mmHg
SBP increased from baseline by ([2]; 1.0 μg/kg/min, significant vs. placebo at 3 to 12 h): 6-8 mmHg
HR decreased from baseline by ([2]; 1.0 μg/kg/min, significant vs. placebo at 3 to 24 h): 8-9 bpm
clinically significant arrhythmias, 24 h Holter monitoring [3]: no differences
